Measured values published in patent US20230257372A1 (CHONG KUN DANG PHARMACEUTICAL CORP., priority 2020, published 2023).
Like-named read-outs stand apart in the source and are kept apart here.

Key:
[1] = biological target: T1, human recombinant HDAC6 (Homo sapiens, UniProt Q9UBN7); assay: HDAC6 enzyme activity inhibition (HDAC Fluorimetric Drug Discovery Kit); format: biochemical
T1 construct: purchased Calbiochem Inc. 382180
T1 sequence (Q9UBN7 1-1215): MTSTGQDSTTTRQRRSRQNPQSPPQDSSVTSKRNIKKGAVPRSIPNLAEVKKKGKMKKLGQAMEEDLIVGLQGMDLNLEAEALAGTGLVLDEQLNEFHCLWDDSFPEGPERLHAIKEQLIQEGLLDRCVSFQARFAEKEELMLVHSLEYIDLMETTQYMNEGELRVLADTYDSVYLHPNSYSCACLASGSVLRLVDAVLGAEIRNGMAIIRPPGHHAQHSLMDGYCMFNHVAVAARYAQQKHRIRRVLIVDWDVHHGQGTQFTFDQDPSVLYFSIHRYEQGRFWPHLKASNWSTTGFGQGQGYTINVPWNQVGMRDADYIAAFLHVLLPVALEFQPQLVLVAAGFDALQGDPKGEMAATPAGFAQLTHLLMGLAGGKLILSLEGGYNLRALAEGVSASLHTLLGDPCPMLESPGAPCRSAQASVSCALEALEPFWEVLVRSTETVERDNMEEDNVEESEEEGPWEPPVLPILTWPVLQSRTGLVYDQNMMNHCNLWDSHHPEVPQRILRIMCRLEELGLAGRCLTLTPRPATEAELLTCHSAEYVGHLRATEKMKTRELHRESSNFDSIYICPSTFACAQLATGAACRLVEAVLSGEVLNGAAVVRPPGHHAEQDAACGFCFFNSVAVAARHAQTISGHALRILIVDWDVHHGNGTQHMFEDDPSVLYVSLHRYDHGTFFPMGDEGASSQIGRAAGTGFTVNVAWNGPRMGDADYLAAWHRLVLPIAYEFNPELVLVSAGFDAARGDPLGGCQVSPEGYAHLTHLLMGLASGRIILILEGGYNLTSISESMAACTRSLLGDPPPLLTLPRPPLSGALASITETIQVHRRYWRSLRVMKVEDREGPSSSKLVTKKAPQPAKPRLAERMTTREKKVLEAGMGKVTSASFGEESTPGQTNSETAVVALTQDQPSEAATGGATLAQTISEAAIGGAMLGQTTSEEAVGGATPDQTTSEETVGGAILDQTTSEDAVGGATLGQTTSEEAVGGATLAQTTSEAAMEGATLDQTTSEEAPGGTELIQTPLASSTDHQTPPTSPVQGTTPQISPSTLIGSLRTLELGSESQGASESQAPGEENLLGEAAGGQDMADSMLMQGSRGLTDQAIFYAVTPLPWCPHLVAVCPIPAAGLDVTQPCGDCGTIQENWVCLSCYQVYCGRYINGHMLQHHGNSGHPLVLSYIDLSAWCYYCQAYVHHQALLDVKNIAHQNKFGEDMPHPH
Outline: (§1)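 Enzyme at 0.3 µg per well was reacted with 10 μM fluorogenic substrate in presence of 5-fold diluted compound, 30° C for 60 min.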

[2] = biological target: T2, human recombinant HDAC1 (Homo sapiens, UniProt Q13547); assay: HDAC1 enzyme activity inhibition (HDAC Fluorimetric Drug Discovery Kit); format: biochemical; conditions: read-out: HDAC1
T2 construct: purchased Enzo Life Science, Inc. BML-SE456
Outline: as §1

[3] = human recombinant HDAC6, same protocol as HDAC1
[4] = human recombinant HDAC1, Fluor de Lys substrate, 30° C. 60 minutes
[5] = human recombinant HDAC6, IC50 calculated with GraphPad Prism
[6] = human recombinant HDAC1, IC50 calculated with GraphPad Prism

T2 sequence (Q13547 whole entry): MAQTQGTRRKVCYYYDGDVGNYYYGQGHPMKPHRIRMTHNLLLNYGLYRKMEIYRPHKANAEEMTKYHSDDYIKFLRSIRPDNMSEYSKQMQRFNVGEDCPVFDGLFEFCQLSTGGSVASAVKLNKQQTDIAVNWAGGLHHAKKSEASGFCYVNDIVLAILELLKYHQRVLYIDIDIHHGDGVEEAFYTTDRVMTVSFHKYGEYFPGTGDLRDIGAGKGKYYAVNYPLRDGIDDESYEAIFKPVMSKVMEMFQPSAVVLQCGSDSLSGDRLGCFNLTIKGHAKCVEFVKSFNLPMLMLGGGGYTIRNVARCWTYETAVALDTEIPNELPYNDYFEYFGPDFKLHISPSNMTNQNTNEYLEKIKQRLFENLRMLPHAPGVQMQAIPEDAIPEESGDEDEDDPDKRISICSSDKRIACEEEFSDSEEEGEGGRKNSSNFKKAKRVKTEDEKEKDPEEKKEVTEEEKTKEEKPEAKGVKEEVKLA

SMILES	HDAC6 selectivity (fold) ([1]; HDAC6 over HDAC1)	IC50 [1, 3] [nM]	IC50 [2, 4] [nM]	HDAC6 selectivity (fold) ([1]; HDAC1 IC50 / HDAC6 IC50)	IC50 [1, 5] [nM]	IC50 [2, 6] [nM]
FC(F)c1nnc(-c2ccc(Cn3cc(-c4ccc(CN5CCCC5)cc4)nn3)cc2)o1 [Compound 4550, 2-(difluoromethyl)-5-(4-((4-(4-(pyrrolidin-1-ylmethyl)phenyl)-1H-1,2,3-triazol-1-yl)methyl)phenyl)-1,3,4-oxadiazole]	2762	18.1	> 50000	–	–	–
CC(C)(C)OC(=O)N1CCC(Cc2cn(Cc3ccc(-c4nnc(C(F)F)o4)cn3)nn2)CC1 [Compound 4000, Tert-butyl 4-((1-((5-(5-(difluoromethyl)-1,3,4-oxadiazol-2-yl)pyridin-2-yl)methyl)-1H-1,2,3-triazol-4-yl)methyl)piperidin-1-carboxylate]	–	–	–	145	343	> 50000
FC(F)c1nnc(-c2ccc(Cn3cc(-c4cccc(CN5CCOCC5)c4)nn3)cc2)o1 [Compound 4411, 4-(3-(1-(4-(5-(difluoromethyl)-1,3,4-oxadiazol-2-yl)benzyl)-1H-1,2,3-triazol-4-yl)benzyl)morpholine]	–	–	–	662	75.5	> 50000
CC(C)(F)CN1CCC(c2cccc(-c3cn(Cc4ccc(-c5nnc(C(F)F)o5)cc4F)nn3)c2)CC1 [Compound 4349, 2-(difluoromethyl)-5-(3-fluoro-4-((4-(3-(1-(2-fluoro-2-methylpropyl)piperidin-4-yl)phenyl)-1H-1,2,3-triazol-1-yl)methyl)phenyl)-1,3,4-oxadiazole]	–	–	–	137	363	> 50000
Fc1ccc(N2CCN(C3CCC3)CC2)cc1-c1cn(Cc2ccc(-c3nnc(C(F)F)o3)cc2)nn1 [Compound 4454, 2-(4-((4-(5-(4-cyclobutylpiperazin-1-yl)-2-fluorophenyl)-1H-1,2,3-triazol-1-yl)methyl)phenyl)-5-(difluoromethyl)-1,3,4-oxadiazol]	–	–	–	632	79.1	> 50000
FC(F)c1nnc(-c2ccc(Cn3cc(-c4ccc(CN5CCC5)cc4)nn3)cc2)o1 [Compound 4548, 2-(4-((4-(4-(azetidin-1-ylmethyl)phenyl)-1H-1,2,3-triazol-1-yl)methyl)phenyl)-5-(difluoromethyl)-1,3,4-oxadiazole]	4545	13.1	> 50000	–	–	–
Fc1cc(-c2nnc(C(F)F)o2)ccc1Cn1cc(-c2cccc(NC3CCCCC3)c2)nn1 [Compound 4330, N-cyclohexyl-3-(1-(4-(5-(difluoromethyl)-1,3,4-oxadiazol-2-yl)-2-fluorobenzyl)-1H-1,2,3-triazol-4-yl)aniline]	–	–	–	268	186	> 50000
Fc1cc(-c2nnc(C(F)F)o2)ccc1Cn1cc(-c2ccc(CN3CC4(COC4)C3)cc2)nn1 [Compound 4523, 6-(4-(1-(4-(5-(difluoromethyl)-1,3,4-oxadiazol-2-yl)-2-fluorobenzyl)-1H-1,2,3-triazol-4-yl)benzyl)-2-oxa-6-azaspiro[3.3]heptane]	4504	11.1	> 50000	–	–	–
CCN1CC(c2cccc(-c3cn(Cc4ccc(-c5nnc(C(F)F)o5)cn4)nn3)c2)C1 [Compound 4502, 2-(difluoromethyl)-5-(6-((4-(3-(1-ethylazetidin-3-yl)phenyl)-1H-1,2,3-triazol-1-yl)methyl)pyridin-3-yl)-1,3,4-oxadiazole]	3571	14.2	> 50000	–	–	–
Fc1cc(-c2nnc(C(F)F)o2)ccc1Cn1cc(-c2cccc(C3CCN(C4COC4)CC3)c2)nn1 [Compound 4293, 2-(difluoromethyl)-5-(3-fluoro-4-((4-(3-(1-(oxetan-3-yl)piperidin-4-yl)phenyl)-1H-1,2,3-triazol-1-yl)methyl)phenyl)-1,3,4-oxadiazole]	–	–	–	618	80.9	> 50000
CN1CCN(Cc2ccccc2-c2cn(Cc3ccc(-c4nnc(C(F)F)o4)cc3F)nn2)CC1 [Compound 4587, 2-(difluoromethyl)-5-(3-fluoro-4-((4-(2-((4-methylpiperazin-1-yl)methyl)phenyl)-1H-1,2,3-triazol-1-yl)methyl)phenyl)-1,3,4-oxadiazole]	274	182	> 50000	–	–	–
CCN1CCN(c2cc(-c3cn(Cc4ccc(-c5nnc(C(F)F)o5)cc4)nn3)ccc2F)CC1 [Compound 4420, 2-(difluoromethyl)-5-(4-((4-(3-(4-ethylpiperazin-1-yl)-4-fluorophenyl)-1H-1,2,3-triazol-1-yl)methyl)phenyl)-1,3,4-oxadiazole]	–	–	–	287	174	> 50000
CC(C)N1CCc2cc(-c3cn(Cc4ccc(-c5nnc(C(F)F)o5)cc4F)nn3)ccc2C1 [Compound 4360, 2-(difluoromethyl)-5-(3-fluoro-4-((4-(2-isopropyl-1,2,3,4-tetrahydroisoquinolin-6-yl)-1H-1,2,3-triazol-1-yl)methyl)phenyl)-1,3,4-oxadiazole]	–	–	–	881	56.7	> 50000
Fc1cc(-c2nnc(C(F)F)o2)ccc1Cn1cc(-c2ccc(Cl)nc2)nn1 [Compound 16781, 2-(4-((4-(6-chloropyridin-3-yl)-1H-1,2,3-triazol-1-yl)methyl)-3-fluorophenyl)-5-(difluoromethyl)-1,3,4-oxadiazole]	546	91.5	> 50000	–	–	–
Fc1cc(-c2nnc(C(F)F)o2)ccc1Cn1cc(-c2ccc(CN3CCCC3)nc2)nn1 [Compound 18175, 2-(difluoromethyl)-5-(3-fluoro-4-((4-(6-(pyrrolidin-1-ylmethyl)pyridin-3-yl)-1H-1,2,3-triazol-1-yl)methyl)phenyl)-1,3,4-oxadiazole]	1184	42.2	> 50000	–	–	–
CN1CCN(c2cccc(-c3cn(Cc4ccc(-c5nnc(C(F)F)o5)cc4)nn3)c2F)CC1 [Compound 4483, 2-(difluoromethyl)-5-(4-((4-(2-fluoro-3-(4-methylpiperazin-1-yl)phenyl)-1H-1,2,3-triazol-1-yl)methyl)phenyl)-1,3,4-oxadiazole]	–	–	–	1466	34.1	> 50000
COC(=O)N1CC(c2cn(Cc3ccc(-c4nnc(C(F)F)o4)cn3)nn2)C1 [Compound 3959, Methyl 3-(1-((5-(5-(difluoromethyl)-1,3,4-oxadiazol-2-yl)pyridin-2-yl)methyl)-1H-1,2,3-triazol-4-yl)azetidin-1-carboxylate]	–	–	–	209	239	> 50000
CCN1CCC(c2cn(Cc3ccc(-c4nnc(C(F)F)o4)cn3)nn2)CC1 [Compound 3807, 2-(difluoromethyl)-5-(6-((4-(1-ethylpiperidin-4-yl)-1H-1,2,3-triazol-1-yl)methyl)pyridin-3-yl)-1,3,4-oxadiazole]	–	–	–	166	301	> 50000
CC(C)N1CCN(c2ccc(F)c(-c3cn(Cc4ccc(-c5nnc(C(F)F)o5)cc4)nn3)c2)CC1 [Compound 4453, 2-(difluoromethyl)-5-(4-((4-(2-fluoro-5-(4-isopropylpiperazin-1-yl)phenyl)-1H-1,2,3-triazol-1-yl)methyl)phenyl)-1,3,4-oxadiazole]	–	–	–	3144	15.9	> 50000
OC1(c2cn(Cc3ccc(-c4nnc(C(F)F)o4)cc3F)nn2)CCOC1 (stereo not drawn) [Compound 4279, 3-(1-(4-(5-(difluoromethyl)-1,3,4-oxadiazol-2-yl)-2-fluorobenzyl)-1H-1,2,3-triazol-4-yl)tetrahydrofuran-3-ol]	–	–	–	182	274	> 50000
